Assay results reported in PMC12048447, “PANTAX: a phase Ib clinical trial of the efflux pump inhibitor SCO-101 in combination with gemcitabine and nab-paclitaxel in non-resectable or metastatic pancreatic cancer” (Investigational New Drugs, 2025).

How the values were obtained:
[1] = tested on: patients with non-resectable or metastatic PDAC; experiment: PANTAX phase Ib: efficacy (RECIST v1.1, PFS, OS, Ca 19-9); assay type: in vivo, human; conditions: SCO-101 with Gem and Nab
Excerpt: The PANTAX trial was a prospective, international multicenter phase Ib open-label, non-randomized, dose-escalation study aiming to determine the MTD, safety, and tolerability of SCO-101 when combined with Gem and Nab in patients with non-resectable or metastatic PDAC (Protocol nr. SCO101-002, EudraCT nr. 2020–002627-11; ClinicalTrials.gov identifier NCT04652206). Furthermore, the study aimed to establish the pharmacokinetic profile of SCO-101 in combination with Gem and Nab. ORR, clinical benefit rate (CBR), median progression free survival (mPFS), and mOS were included as secondary end points.
Tumor evaluation by CT and MRI scans were done every 8 weeks. Response was determined according to RECIST v 1.1 [21] by local assessment. ORR was determined as the percentage of evaluable patients experiencing a complete response (CR) or partial response (PR). CBR was determined as the percentage of evaluable patients experiencing response or stable disease (SD) for over 16 weeks. Date of study inclusion was the index date. For assessment of PFS, the date of PD was the date of imaging showing progression or date of last treatment in patients with deteriorating clinical condition. Patients not followed until progression were censored for PFS at the date of last follow-up. One patient was lost to follow-up for survival and was censored from OS analysis on the date of last visit. End of study was 6 months after the last patients last treatment visit.

[2] = design: method as in PMID 32628359; conditions: healthy volunteers, cited from earlier work
[3] = PANTAX phase Ib: plasma pharmacokinetics of SCO-101; assay type: in vivo, human
Method: Pharmacokinetics (PK) blood samples were drawn during the first cycle of treatment on day one of SCO-101 administration (6 time points), on day six (6 time points), and on day nine (72 h after last SCO-101 treatment). Plasma samples were analyzed for SCO-101 using a bioanalytical method (BM/2020/0998) developed and validated under study KF64YR at LabCorp (England). SCO-101 was extracted from human plasma by protein precipitation and analyzed by liquid chromatography using tandem mass spectrometry (LC–MS/MS). Pharmacokinetic parameters were determined by noncompartmental analysis using the software package SAS (version 9.4 or higher). The PK profile of SCO-101 was evaluated by maximum drug plasma concentration (Cmax) and area under the plasma drug concentration–time curve (AUC0 to 8 h).

[4] = tested on: patients with colorectal cancer; conditions: SCO-101 with FOLFIRI, patients with prior progression on FOLFIRI, cited from earlier work
PANC-1-Pac cells = experiment: MTT cell viability and ZIP synergy in paclitaxel-resistant PANC-1-Pac cells; assay type: cell-based, human; conditions: 72 h with drug + 72 h fresh media
Excerpt: (§1) A paclitaxel-sensitive human PDAC cell line, PANC-1, was obtained (ATCC, CRL-1469) and the derived paclitaxel-resistant PANC-1-Pac cell line was established by gradually increasing concentrations of paclitaxel over a period of 2–4 months. Standard MTT and crystal violet assays were applied to evaluate the effect of treatment with either combinations of SCO-101 and paclitaxel or SRPK1-inhibitor and paclitaxel. Details are presented in the Online Resource.
Statistical analyses were mainly descriptive and included mean, median, range, and 95% CIs. Kaplan–Meier plots were constructed using Stata version 18 (StataCorp, 2023). In the preclinical study, the zero interaction potency (ZIP) synergy score was calculated as described by Yadav et al., to quantify the deviation from the expectation of zero interaction between drugs. A ZIP synergy score above 10 indicates synergy.
as §1, with “line PANC-1” for “line, PANC-1,”, “2-4” for “2–4”, “SCO-101/paclitaxel” for “SCO-101 and paclitaxel”, “SRPK1 inhibitor/paclitaxel.” for “SRPK1-inhibitor and paclitaxel. Details are presented in the Online Resource.”
The selection began at 1 nM, increased to 2 nM and 4 nM, and ended at 8 nM. For each drug concentration the cells were kept for three passages. To evaluate the effect of the treatment either a Crystal Violet assay or MTT (3-(4,5-dimethylthiazol-2-yl)-2,5-diphenyltetrazolium bromide) assay were applied.
The MTT was conducted according to standard conditions. In short, cells were seeded at a density of 7,000 cells/well into a 96-well. One day after seeding, the cells were experimentally treated. Control conditions consisted of either growth medium (‘untreated’) or DMSO diluted in growth medium. All treatments were performed in triplicates. The cells were then kept in the CO2 incubator at 37 °C for 72 hours and plates were incubated with 100μl 1:10 MTT (0.5 mg/ml dissolved in phosphate buffered saline) for 3 hours and hereafter stopped using 100μl/well stop buffer (50g Sodium Dodecyl Sulphate, 245 mL MiliQ H2O, 5mL 1.0 N HCl was added to dissolve the formazan crystals overnight. Optical densities were measured at 570 and 670 nm.
Experiments with 4 different concentrations of either SCO-101 or paclitaxel and their combinations were applied to test for synergy among these two compounds in both the PANC-1 parental and -Paclitaxel resistant cells. SCO-101 was applied in 10, 20, 40 and 50 µM whereas paclitaxel was tested in 5, 10, 15 and 20 nM for a total of 144 h, where drug was only present in the first 72h (sFig 2). The SRPK1 inhibitor SPHINX31 was tested at 0.1; 0.5; 1 and 5 µM. The SRPK1 inhibitor SRPIN was tested at 1; 5; 10 and 50 µM. Both inhibitors were tested in combination with 5, 10, 15 and 20 nM Paclitaxel.
PANC-1-Pac cells treated with paclitaxel and SRPIN340 with four different concentrations of each for a total of 144 hours. Cell viability was evaluated by MTT assays and reported as percentage of untreated control (medium). Error bars indicate percentage standard deviation.

Q: Which “patients with reduction of serum Ca 19-9 of at least 25%” value ([1]; 15 patients with elevated Ca 19-9 at treatment initiation) does the source give for `O=C(Nc1cc(C(F)(F)F)cc(C(F)(F)F)c1)Nc1ccc(Br)cc1-c1nnn[nH]1` [SCO-101] here?
A: The value was 53%.

Q: What about the “objective response rate (ORR)” value ([1]; 15 evaluable patients) of the same compound?
A: The value was 6.7%.

Q: What about the “median progression-free survival (mPFS)” value ([1]; CI 1.7-9.2 months) of the same compound?
A: The value was 3.3 months.

Q: And the “median overall survival (mOS)” value ([1]; CI 5.7-16 months)?
A: Its value is 9.5 months.

Q: What about the “clinical benefit rate (CBR)” value ([1]; response or SD over 16 weeks, 15 evaluable patients) of the same compound?
A: The value was 33%.

Q: What about the “individuals who developed clinical jaundice” value ([2]; 150 mg dose cohort) of the same compound?
A: The value was “Two”.

Q: And the adverse events ([2]; single doses up to 200 mg or multiple doses up to 150 mg daily for 14 days)?
A: Its adverse events is “mild adverse events (AEs) and no serious adverse events (SAEs)”.

Q: What about the “increase in exposure with dose” value ([3]; 50-250 mg daily, Cmax and AUC0-8 h) of the same compound?
A: The value was “approximately dose proportional”.

Q: What about the “fraction of SCO-101 Cmax present at day 9” value ([3]; average, 200 mg and 250 mg doses, 72 h after last SCO-101 treatment) of the same compound?
A: The value was 33%.

Q: What about the “accumulation of Cmax and AUC0-8 h” value ([3]; daily doses for 6 consecutive days, plasma, patients) of the same compound?
A: Its value is “two- to threefold”.

Q: And the tumor response ([4]; 4 of 25 patients)?
A: The tumor response was 16%.

Q: And the mOS [4]?
A: Its mOS is 10.4 months.

Q: What about the “effect on PANC-1-Pac cells (cell viability), drug alone” value (PANC-1-Pac cells) of the same compound?
A: The value was “dose-dependent effect”.

Q: And the “ZIP synergy score with paclitaxel” value (PANC-1-Pac cells; PANC-1-Pac cells, SCO-101 + paclitaxel, score above 10 indicates synergy)?
A: Its value is 16.795.
